# Values of other authors as cited in patent publication US20080318218A1, “Compositions and Methods for Inferring an Adverse Effect in Response to a Drug Treatment” (DNAPrint Genomics, Inc., priority 2004, published 2008).
# Tests used:
# [1] = clinical trials
# NO synthase = details: ACE inhibitor-associated cough; P<0.01; not with placebo
# [2] = human, in vivo
structure (smiles),measurement,setting,value
"COCc1c(C(C)C)nc(C(C)C)c(/C=C/[C@@H](O)C[C@@H](O)CC(=O)O)c1-c1ccc(F)cc1 [Baycol, Cerivastatin]",patients experiencing muscle discomfort and/or creatine kinase elevations in response to treatment,[1],about 1%
[Fe] [iron],cough scores,NO synthase,significant reduction
CC(C)c1c(C(=O)Nc2ccccc2)c(-c2ccccc2)c(-c2ccc(F)cc2)n1CC[C@@H](O)C[C@@H](O)CC(=O)O [Atorvastatin],"patients exhibiting persistent and dose-dependent indications of hepatic stress (elevation in serum transaminase SGOT, ALTGPT)",[2],Approximately 0.7%
